Measured values: article PMC8042380, “Brusatol Derivative–34 Attenuates Allergic Airway Inflammation Via Inhibition of the Spleen Tyrosine Kinase Pathway” (Frontiers in Pharmacology, 2021)

Target: Spleen tyrosine kinase (Syk) (Homo sapiens, UniProt P43405)
Experiment: ADP-Glo kinase assay with purified active Syk (Promega Syk Kinase Enzyme System V3801), Poly E4Y1 substrate, ATP
Type: biochemical

Structure (SMILES): COC(=O)[C@@]12OC[C@@]34C(CC5C(C)=C(OC(=O)CCC(=O)OCCCCOc6no[n+]([O-])c6S(=O)(=O)c6ccccc6)C(=O)C[C@]5(C)C3[C@@H](O)[C@@H]1O)OC(=O)[C@H](OC(=O)C=C(C)C)C42 (stereo partly shown) [Bru-34, Brusatol derivative-34]
- IC50: 540 nM
